Patent US10532082B2, “SOCS1-derived peptide for use in chronic complications of diabetes” (Fundació Hospital Universitari Vall d'Hebron-Institut de …, priority 2014, dated 2020)
Where no end group is shown, it is not given here. [ ]: non-standard residue; d: D form. lysine‑palmitate = lysine-palmitate bound at the N-terminal end; pY = N[C@@H](Cc1ccc(OP(=O)(O)O)cc1)C(=O)O

What was measured:
[1] = tested on: STAT1; assay: STAT1 activation in cytokine-stimulated macrophages (Western blot); format: cell-based, murine; conditions: pre-incubation 50-150 ug/mL (Mut 150 ug/mL), IFNγ and IL-6 stimulation
Procedure: (§1) RAW264.7 macrophages and vascular smooth muscle cells (VSMC) cultured in a medium with 10% fetal bovine serum were used. The cells were synchronized (24 hours without serum), pre-incubated for 90 minutes with different peptide concentrations (miS1 or the control thereof, 50-150 μg/mL) and stimulated with cytokines (IFNγ […]). STAT activation was analyzed by means of Western blot for phosphorylated STAT1/STAT3 isoforms. JAK/STAT pathway-dependent chemokine (CCL2) expression was determined by means of ELISA. Cell viability was analyzed by MTT colorimetric assay and macrophage migration was analyzed by chemotaxis assay.

[2] = tested on: diabetic mice (db/db); assay: Disruption of the blood-retinal barrier, albumin extravasation; format: in vivo; conditions: eye drops 50 μg in 5 μL/eye twice a day, 15 days
Procedure: 8-week old diabetic mice (db/db) received the miS1 peptide in the form of eye drops (5 μL drops in each eye; 10 mg/mL; twice a day for 15 days; n=7 mice). Diabetic mice treated with vehicle (n=7) and non-diabetic mice (db/+) (n=7) were used as controls. The weight and glycemia (colorimetric assay) were controlled throughout the study period. The animals were euthanized on day 15 by cervical dislocation. The disruption of the BRB was evaluated by means of determining albumin permeability.
The paraffin sections were deparaffinized in xylene and rehydrated in a gradual series of ethanol. The sections were fixed in acidic methanol (−20° C.) for 1 minute and washed with 0.01 M PBS solution at pH 7.4. The sections were incubated in a blocking solution (2.5% dry, non-fat milk) for 30 minutes at room temperature. The sections were incubated with a goat anti-human serum albumin primary antibody (1:500, Abcam) overnight at 4° C. After one washing in PBS, the sections were incubated with an Alexa 594 donkey anti-goat secondary antibody (1:200, Molecular Probes) for 1 hour at room temperature. […] The immunofluorescence of albumin was analyzed by means of laser confocal microscopy (Olympus FluoView™ FV1000 confocal microscope, Hamburg, Germany).

[3] = tested on: streptozotocin diabetic apoE-deficient mice; assay: Metabolic and renal data in mice with type 1 diabetes, intraperitoneal treatment; format: in vivo; conditions: STZ apoE mice, 65 μg/day i.p. every 2 days, 8 weeks
Procedure: (§2) Apolipoprotein E (apoE)-deficient male mice of 8 weeks of age were made diabetic through streptozotocin injection (125 mg/kg weight in 10 mM citrate, pH 4.5, two consecutive days). After 2 weeks, animals with glycemia greater than 350 mg/dL were randomly distributed in two groups (n=9 animals per group): treated animals (miS1 peptide: 65 μg/day, 200 μL, intraperitoneally, every 2 days for 8 weeks) and controls (vehicle). The weight and glycemia (colorimetric assay) were controlled throughout the study period.
(§3) At the end of the study, the anesthetized animals were perfused with saline and sacrificed, processing the tissues immediately. In renal cortex (paraffin sections, 5 μm) the glomerular and tubulointerstitial morphology was studied by means of PAS and Masson trichrome staining and the lesions were evaluated in a double-blind and semi-quantitative manner in a scale of 0-3. Renal fibrosis was determined by means of Picro-Sirius red staining and the infiltrating inflammatory cells (F4/80+ macrophages and CD3+ T-lymphocytes) by immunohistochemistry. In the aorta, the root/arch zone (serial cryosections of 8 μm from the valves to an extension of 1000 μm) was stained with Oil-red-O/hematoxylin and the area of the atherosclerotic lesion was quantified (Metamorph program). Plaque stability was assessed by collagen fiber staining with Picro-Sirius red and α-actin immunofluorescence. The inflammatory component was determined by means of immunohistochemistry for monocyte/macrophages (Moma2). The Image Pro-Plus program was used for quantifying positive stainings. The biochemical parameters in serum (glycated hemoglobin, cholesterol and creatinine) and in urine (albumin and creatinine) were determined by means of conventional commercial kits.

[4] = tested on: STAT3; assay: STAT3 activation in cytokine-stimulated VSMC; format: cell-based, mouse; conditions: IFNγ and IL-6 stimulation, immunofluorescence images
[5] = tested on: RAW264.7 macrophages; assay: Macrophage migration chemotaxis assay; format: cell-based, murine; conditions: chemotaxis assays
Procedure: as §1

[6] = tested on: streptozotocin diabetic apoE-deficient mice; assay: Atheromatous plaque size and composition in aorta of diabetic mice; format: in vivo; conditions: STZ apoE mice, i.p.
Procedure: as §2, §3

[7] = tested on: diabetic mice (db/db); assay: Retinal IL-1β mRNA expression by RT-PCR; format: in vivo; conditions: eye drops 15 days, retina mRNA RT-PCR
Procedure: 8-week old diabetic mice (db/db) received the miS1 peptide in the form of eye drops (5 μL drops in each eye; 10 mg/mL; twice a day for 15 days; n=7 mice). Diabetic mice treated with the non-functional peptide Mut (n=7), treated with vehicle and non-diabetic mice (db/+) were used as controls. The eye drops were directly administered on the upper surface of the cornea of each eye using a micropipette. The weight and glycemia (colorimetric assay) were controlled throughout the study period. On day 15, the drop with the miS1 peptide or vehicle was administered about two hours before autopsy. The animals were euthanized by cervical dislocation and the enucleated eyes were immediately frozen and dorsoventral sections of […] were cut for analyzing retinal morphology and other immunohistochemical analyses.
The expression of IL-1β, TNF-α and IL-6 was evaluated. The total RNA was extracted with RNeasy Mini Kit with DNAse digestion (QIAGEN, distributed by IZASA, Barcelona, Spain) according to manufacturer's instructions. The RNA (1 μg) was used for reverse transcription with random hexanucleotide primers and Applied Biosystems reagents (Applied Biosystems, Madrid, Spain) in a reaction volume of 20 μl. […] The ΔΔCt method was used for obtaining the relative quantification (RQ).

Substance: miS1: SEQ ID NO 1 DTHFRTFRSHSDYRRI, kinase inhibitory region of murine SOCS1, bound to lysine-palmitate at the N-terminal end, tyrosine phosphorylated ({lysine‑palmitate}-DTHFRTFRSHSD[pY]RRI)
- STAT1 activation (phosphorylation) [1]: reduced STAT1 and STAT3 activation in a dose-dependent manner
- albumin extravasation (vascular permeability) [2]: prevented
- weight loss caused by chronic diabetes [3]: less pronounced
- ALT ([3]; end of study): 97 ± 17 U/L
- AST ([3]; end of study): 176 ± 20 U/L
- Blood glucose ([3]; end of study): 549 ± 29 mg/dL
- GHbA1c ([3]; end of study): 503 ± 76 µg/mL
- HDL cholesterol ([3]; end of study): 11 ± 1 mg/dL
- LDL cholesterol ([3]; end of study): 597 ± 61 mg/dL
- Total cholesterol ([3]; end of study): 611 ± 59 mg/dL
- Triglycerides ([3]; end of study): 89 ± 23 mg/dL
- Weight ([3]; end of study): 21.9 ± 0.6 g
- Urine albumin-creatinine ratio ([3]; p < 0.01 vs control): 16.2 ± 61.1 µg/µmol
- Serum creatinine ([3]; p < 0.02 vs control): 0.24 ± 0.04 mg/dL
- Kidney-body mass ratio ([3]; p < 0.05 vs control): 16.4 ± 1.3 mg/g
- decrease in albumin levels (renal function) ([3]; vs vehicle): 28%
- STAT3 activation [4]: prevented
- macrophage migration [5]: anti-migratory effect
- reduction in the size and extension of atheromatous lesions ([6]; Oil-red-O/hematoxylin, compared with the control group that received the vehicle): 50%
- collagen and vascular cells content of plaques ([6]; plaque composition): higher
- number of macrophages in the atherosclerotic lesions ([6]; plaque composition): reduction
- IL-1β increase induced by diabetes [7]: prevented the increase
